Results taken from ChEMBL document CHEMBL2150966, “Discovery of a novel series of potent and orally bioavailable phosphoinositide 3-kinase γ inhibitors” (J Med Chem, 2012).
≈ marks a conversion by molar mass, not a printed value.

Experiments:
[1] = Plasma concentration in C57BL6 mouse at 100 mg/kg, po after 1 hr; type: ADME, organism-based; set-up: dose 100 mg/kg, route oral
[2] = Plasma concentration in C57BL6 mouse at 100 mg/kg, po after 4 hr; type: ADME, organism-based; set-up: dose 100 mg/kg, route oral
[3] = Kinetic solubility of compound in PBS at pH 7.4; type: physicochemical; conditions: read-out: Kinetic_solubility
[4] = Lipophilicity of compound, Log D; type: physicochemical; conditions: octanol/water
[5] = Drug metabolism in mouse liver microsome assessed as compound oxidation after 30 mins; type: ADME; conditions: liver microsomes, read-out: Drug metabolism
[6] = Oral bioavailability Sprague-Dawley rat at 5 mg/kg; type: ADME, organism-based; conditions: in vivo
[7] = Half life in Sprague-Dawley rat at 5 mg/kg, po; type: ADME, organism-based; set-up: dose 5 mg/kg, route oral; conditions: in vivo
[8] = AUC (0 to infinity) in Sprague-Dawley rat at 5 mg/kg, po; type: ADME, organism-based; set-up: time infinity, dose 5 mg/kg, route oral; conditions: plasma
[9] = Apparent permeability across apical to basolateral side of MDCK cells; type: ADME, cell-based, Canis lupus familiaris; conditions: dog
in vivo = conditions: BALB/c, mouse, plasma, po, 100 mg/kg
[10] = Cmax in Sprague-Dawley rat at 5 mg/kg, po; type: ADME, organism-based; set-up: dose 5 mg/kg, route oral; conditions: in vivo

With `COc1ccc(-c2cccc(S(=O)(=O)N3CCN(c4nccnc4-c4ccc(OC)cc4)CC3)c2)cc1` the concentration at 1 h [1] was 0.5 µM and the concentration at 4 h [2] was 0.1 µM.

`CNC(=O)c1nc(-c2cccc(-c3nnn[nH]3)c2)cnc1N` showed a solubility kinetic [3] of 424 µM (≈ 126 µg/mL) and a logD [4] of 0.47.

For `CC(C)c1ccc(-c2nccnc2N2CCN(S(=O)(=O)c3cccc(-c4cnc(N)nc4)c3)CC2)cc1`, the metabolised at 0.5 h [5] was 79%, the concentration at 1 h [1] was 0.7 µM and the concentration at 4 h [2] was 0.1 µM.

In the case of `CC(C)c1ccc(-c2ncccc2N2CCN(S(=O)(=O)c3cccc(-c4cnc(N)nc4)c3)CC2)cc1`, the bioavailability [6] is reported as 12.7%, the half-life [7] is reported as 1.82 h and the metabolised at 0.5 h [5] is reported as 37%. The concentration at 1 h [1] was 12.9 µM, the concentration at 4 h [2] was 3.2 µM and the solubility kinetic [3] was less than 5 µM. The logD [4] was greater than 4 and the AUC(0-inf) [8] was 0.9 µM·h.

For `CNC(=O)c1nc(-c2cccc(S(=O)(=O)Nc3ccccc3)c2)cnc1N`, the Papp A→B [9] was 10 ×10⁻⁶ cm/s.

`CNC(=O)c1nc(-c2ccc(Cl)c(S(=O)(=O)Nc3ccccc3)c2)cnc1N` gave a Papp A→B [9] of 10 ×10⁻⁶ cm/s.

Work on `CNC(=O)c1nc(-c2ccc(Cl)c(S(=O)(=O)NC)c2)cnc1N` yielded a Papp A→B [9] of 10 ×10⁻⁶ cm/s.

With `CNC(=O)c1nc(-c2ccc(Cl)c(S(N)(=O)=O)c2)cnc1N` the Papp A→B [9] was 10 ×10⁻⁶ cm/s.

With `CNC(=O)c1nc(-c2ccc(Cl)c(S(=O)(=O)NCC(F)(F)F)c2)cnc1N` the Papp A→B [9] was 10 ×10⁻⁶ cm/s and the solubility kinetic [3] was 211 µM (≈ 89.4 µg/mL).

Compound `CNC(=O)c1nc(-c2ccc(OC)c(S(=O)(=O)Nc3ccccc3)c2)cnc1N` has a Papp A→B [9] of 10 ×10⁻⁶ cm/s.

`CNC(=O)c1nc(-c2ccc(F)c(S(=O)(=O)Nc3ccccc3)c2)cnc1N` showed a Papp A→B [9] of 10 ×10⁻⁶ cm/s.

Compound `CNC(=O)c1nc(-c2cnc(N)c(S(=O)(=O)Nc3ccccc3)c2)cnc1N` has a Papp A→B [9] of 10 ×10⁻⁶ cm/s.

`CNC(=O)c1nc(-c2cccc(NS(=O)(=O)c3ccccc3)c2)cnc1N` gave a Papp A→B [9] of 10 ×10⁻⁶ cm/s.

`CNC(=O)c1nc(-c2cccc(NS(=O)(=O)c3cccc(Cl)c3)c2)cnc1N` gave a Papp A→B [9] of 10 ×10⁻⁶ cm/s.

Work on `CNC(=O)c1nc(-c2ccc(Cl)c(NS(=O)(=O)c3cccc(Cl)c3)c2)cnc1N` yielded a Papp A→B [9] of 10 ×10⁻⁶ cm/s.

With `CNC(=O)c1nc(-c2ccc(Cl)c(S(=O)(=O)Nc3cccc(C)c3)c2)cnc1N` the Papp A→B [9] was 10 ×10⁻⁶ cm/s.

With `CNC(=O)c1nc(-c2ccc(Cl)c(S(=O)(=O)Nc3cccc(F)c3)c2)cnc1N` the concentration at 1 h [1] was 1.6 µM, the Papp A→B [9] was 10 ×10⁻⁶ cm/s and the concentration at 4 h [2] was 1 µM.

`CNC(=O)c1nc(-c2ccc(Cl)c(S(=O)(=O)Nc3cccc(OC)c3)c2)cnc1N` showed a concentration at 1 h [1] of 0.7 µM, a Papp A→B [9] of 10 ×10⁻⁶ cm/s and a concentration at 4 h [2] of 0.09 µM.

For `CNC(=O)c1nc(-c2ccc(Cl)c(S(=O)(=O)Nc3cccc(C(F)(F)F)c3)c2)cnc1N`, the concentration at 1 h [1] was 1.7 µM, the Papp A→B [9] was 10 ×10⁻⁶ cm/s and the concentration at 4 h [2] was 0.4 µM.

`CNC(=O)c1nc(-c2ccc(Cl)c(S(=O)(=O)Nc3cccc(Cl)c3)c2)cnc1N` showed a concentration at 1 h [1] of 1.3 µM, a Papp A→B [9] of 10 ×10⁻⁶ cm/s and a concentration at 4 h [2] of 0.1 µM. It also gave a solubility kinetic [3] of less than 1 µM.

`CNC(=O)c1nc(-c2ccc(Cl)c(S(=O)(=O)Nc3ccccc3Cl)c2)cnc1N` gave a concentration at 1 h [1] of 59.1 µM, a Papp A→B [9] of 10 ×10⁻⁶ cm/s and a concentration at 4 h [2] of 9.6 µM. It also gave a solubility kinetic [3] of 24 µM (≈ 10.9 µg/mL).

For `CNC(=O)c1nc(-c2ccc(Cl)c(S(=O)(=O)Nc3ccc(Cl)cc3)c2)cnc1N`, the Papp A→B [9] was 10 ×10⁻⁶ cm/s.

In the case of `CNC(=O)c1nc(-c2cccc(S(=O)(=O)Nc3cccc(Cl)c3)c2)cnc1N`, the concentration at 1 h [1] is reported as 0.6 µM, the Papp A→B [9] is reported as 10 ×10⁻⁶ cm/s and the concentration at 4 h [2] is reported as 0.4 µM.

For `CNC(=O)c1nc(-c2ccc(Cl)c(S(=O)(=O)Nc3ccc(F)cc3Cl)c2)cnc1N`, the concentration at 4 h (in vivo) was 20.3 µM, the concentration at 1 h [1] was 64.8 µM and the Papp A→B [9] was 10 ×10⁻⁶ cm/s. The concentration at 4 h [2] was 19.2 µM.

`CNC(=O)c1nc(-c2ccc(Cl)c(S(=O)(=O)Nc3cccc(F)c3Cl)c2)cnc1N` showed a concentration at 1 h [1] of 237 µM, a Papp A→B [9] of 10 ×10⁻⁶ cm/s and a concentration at 4 h [2] of 39.8 µM.

With `CNC(=O)c1nc(-c2ccc(Cl)c(S(=O)(=O)Nc3ccc(Cl)cc3Cl)c2)cnc1N` the concentration at 4 h (in vivo) was 6.5 µM, the concentration at 1 h [1] was 21.3 µM and the Papp A→B [9] was 10 ×10⁻⁶ cm/s. It also gave a concentration at 4 h [2] of 8.6 µM.

Compound `CNC(=O)c1nc(-c2ccc(Cl)c(S(=O)(=O)Nc3cccc(Cl)c3Cl)c2)cnc1N` has a concentration at 1 h [1] of 173 µM, a Papp A→B [9] of 10 ×10⁻⁶ cm/s and a concentration at 4 h [2] of 22.1 µM.

`CNC(=O)c1nc(-c2cccc(S(=O)(=O)Nc3cccc(F)c3F)c2)cnc1N` gave a Papp A→B [9] of 10 ×10⁻⁶ cm/s.

`CNC(=O)c1nc(-c2ccc(Cl)c(S(=O)(=O)Nc3cccc(F)c3F)c2)cnc1N` showed a bioavailability [6] of 76.7%, a half-life [7] of 4.44 h and a concentration at 4 h (in vivo) of 43.1 µM. The Cmax [10] was 42.5 µM, the concentration at 1 h [1] was 333 µM and the Papp A→B [9] was 55 ×10⁻⁶ cm/s. The concentration at 4 h [2] was 119 µM, the solubility kinetic [3] was 176 µM (≈ 79.9 µg/mL) and the AUC(0-inf) [8] was 449 µM·h.

`CNC(=O)c1nc(-c2ccc(Cl)c(S(=O)(=O)Nc3cccc(F)c3C)c2)cnc1N` gave a bioavailability [6] of 66.2%, a half-life [7] of 2.08 h and a concentration at 4 h (in vivo) of 9.2 µM. For the same compound, the Cmax [10] was 9.1 µM, the concentration at 1 h [1] was 13.1 µM and the Papp A→B [9] was 10 ×10⁻⁶ cm/s. It also gave a concentration at 4 h [2] of 6.2 µM and an AUC(0-inf) [8] of 26.8 µM·h.

In the case of `Nc1cnc(-c2ccc(Cl)c(S(=O)(=O)Nc3cccc(F)c3F)c2)cn1`, the Papp A→B [9] is reported as 10 ×10⁻⁶ cm/s.

`Nc1ncc(-c2ccc(Cl)c(S(=O)(=O)Nc3cccc(F)c3F)c2)cn1` gave a Papp A→B [9] of 10 ×10⁻⁶ cm/s.

For `COc1nc(N)ncc1-c1ccc(Cl)c(S(=O)(=O)Nc2cccc(F)c2F)c1`, the Papp A→B [9] was 10 ×10⁻⁶ cm/s.

For `Nc1ncc(-c2ccc(Cl)c(S(=O)(=O)Nc3cccc(F)c3F)c2)c(OCC(F)(F)F)n1`, the Papp A→B [9] was 10 ×10⁻⁶ cm/s.

`CS(=O)(=O)N1CCN(Cc2cc3nc(-c4cccc5[nH]ncc45)nc(N4CCOCC4)c3s2)CC1` [PICTILISIB] showed a concentration at 4 h (in vivo) of 5.3 µM.
